Data from PubChem BioAssay (NCI).
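Tested at 5 concentrations; 48 h exposure; 96-well plates; endpoints linearly interpolated, else capped at highest concentration. TGI: concentration producing complete growth inhibition.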

Assays:
Assay in all cases: NCI-60 cell line screen, 48 h
HCT-116 colon = test system: HCT-116 colon
RXF 393 renal = test system: RXF 393 renal
OVCAR-4 ovarian = test system: OVCAR-4 ovarian
NCI-H226 lung = test system: NCI-H226 lung
A549 NSCLC = test system: A549 NSCLC
SF-268 CNS = test system: SF-268 CNS
SR leukemia = test system: SR leukemia
SF-539 CNS = test system: SF-539 CNS
MALME-3M melanoma = test system: MALME-3M melanoma
NCI-H460 lung = test system: NCI-H460 lung
HOP-92 NSCLC = test system: HOP-92 NSCLC
SK-OV-3 ovarian = test system: SK-OV-3 ovarian
DLD-1 colon = test system: DLD-1 colon
KM12 colon = test system: KM12 colon
SN12C renal = test system: SN12C renal
HT29 colon = test system: HT29 colon
SK-MEL-2 melanoma = test system: SK-MEL-2 melanoma
HCT-15 colon = test system: HCT-15 colon
SNB-19 CNS = test system: SNB-19 CNS
U251 CNS = test system: U251 CNS
IGROV1 ovarian = test system: IGROV1 ovarian
MOLT-4 leukemia = test system: MOLT-4 leukemia
A498 renal = test system: A498 renal
K-562 leukemia = test system: K-562 leukemia
DMS 114 small cell lung = test system: DMS 114 small cell lung
SK-MEL-5 melanoma = test system: SK-MEL-5 melanoma
SK-MEL-28 melanoma = test system: SK-MEL-28 melanoma
CAKI-1 renal = test system: CAKI-1 renal
SNB-78 CNS = test system: SNB-78 CNS
SF-295 CNS = test system: SF-295 CNS
KM20L2 colon = test system: KM20L2 colon
M14 melanoma = test system: M14 melanoma
NCI-H23 lung = test system: NCI-H23 lung
ACHN renal = test system: ACHN renal
HOP-62 NSCLC = test system: HOP-62 NSCLC
OVCAR-3 ovarian = test system: OVCAR-3 ovarian
SNB-75 CNS = test system: SNB-75 CNS
OVCAR-5 ovarian = test system: OVCAR-5 ovarian
COLO 205 colon = test system: COLO 205 colon
OVCAR-8 ovarian = test system: OVCAR-8 ovarian
UACC-62 melanoma = test system: UACC-62 melanoma
UO-31 renal = test system: UO-31 renal
UACC-257 melanoma = test system: UACC-257 melanoma
LXFL 529 NSCLC = test system: LXFL 529 NSCLC
XF 498 CNS = test system: XF 498 CNS
EKVX NSCLC = test system: EKVX NSCLC
RPMI-8226 leukemia = test system: RPMI-8226 leukemia
SW-620 colon = test system: SW-620 colon
NCI-H522 lung = test system: NCI-H522 lung
CCRF-CEM leukemia = test system: CCRF-CEM leukemia
HCC-2998 colon = test system: HCC-2998 colon
HL-60(TB) leukemia = test system: HL-60(TB) leukemia
TK-10 renal = test system: TK-10 renal
DMS 273 small cell lung = test system: DMS 273 small cell lung
786-0 renal = test system: 786-0 renal
M19-MEL melanoma = test system: M19-MEL melanoma
LOX IMVI melanoma = test system: LOX IMVI melanoma

[O-]c1c2c(nn1-c1ccc(F)cc1)c1ccccc1c[n+]2Cc1ccccc1
TGI (HCT-116 colon): 32.9 µM | TGI (RXF 393 renal): 33.7 µM | TGI (OVCAR-4 ovarian): 66.2 µM | TGI (NCI-H226 lung): 47.4 µM | TGI (A549 NSCLC): 73.1 µM | TGI (SF-268 CNS): 40.7 µM | TGI (SR leukemia): 41.9 µM | TGI (SF-539 CNS): 8.57 µM | TGI (MALME-3M melanoma): 25.6 µM | TGI (NCI-H460 lung): 29.7 µM | TGI (HOP-92 NSCLC): 57.9 µM | TGI (SK-OV-3 ovarian): 41.8 µM | TGI (DLD-1 colon): 43.7 µM | TGI (KM12 colon): 25 µM | TGI (SN12C renal): 52.5 µM | TGI (HT29 colon): 27.1 µM | TGI (SK-MEL-2 melanoma): 9.23 µM | TGI (HCT-15 colon): 39.1 µM | TGI (SNB-19 CNS): > 100 µM | TGI (U251 CNS): 33.4 µM | TGI (IGROV1 ovarian): 30.6 µM | TGI (MOLT-4 leukemia): 81.5 µM | TGI (A498 renal): 85.3 µM | TGI (K-562 leukemia): 81.4 µM | TGI (DMS 114 small cell lung): 32.9 µM | TGI (SK-MEL-5 melanoma): 13.4 µM | TGI (SK-MEL-28 melanoma): 34 µM | TGI (CAKI-1 renal): 94.7 µM | TGI (SNB-78 CNS): 35.4 µM | TGI (SF-295 CNS): 40.4 µM | TGI (KM20L2 colon): 25.9 µM | TGI (M14 melanoma): 15.3 µM | TGI (NCI-H23 lung): 55.8 µM | TGI (ACHN renal): 28 µM | TGI (HOP-62 NSCLC): 32.1 µM | TGI (OVCAR-3 ovarian): 22.1 µM | TGI (SNB-75 CNS): 60.5 µM | TGI (OVCAR-5 ovarian): 41.3 µM | TGI (COLO 205 colon): 4.52 µM | TGI (OVCAR-8 ovarian): 61.9 µM | TGI (UACC-62 melanoma): 14.2 µM | TGI (UO-31 renal): 54.9 µM | TGI (UACC-257 melanoma): 30.3 µM | TGI (LXFL 529 NSCLC): 18.8 µM | TGI (XF 498 CNS): 45.2 µM | TGI (EKVX NSCLC): 56.4 µM | TGI (RPMI-8226 leukemia): 47.1 µM | TGI (SW-620 colon): 48.7 µM | TGI (NCI-H522 lung): 21.3 µM | TGI (CCRF-CEM leukemia): 33.7 µM | TGI (HCC-2998 colon): 24.8 µM | TGI (HL-60(TB) leukemia): 11.1 µM | TGI (TK-10 renal): 83 µM

Cc1ccc(S(=O)(=O)c2ccc(C)cc2[N+](=O)[O-])c([N+](=O)[O-])c1
TGI (HCT-116 colon): > 100 µM | TGI (RXF 393 renal): > 100 µM | TGI (DMS 273 small cell lung): > 100 µM | TGI (OVCAR-4 ovarian): > 100 µM | TGI (NCI-H226 lung): > 100 µM | TGI (A549 NSCLC): > 100 µM | TGI (SF-268 CNS): > 100 µM | TGI (SR leukemia): > 100 µM | TGI (SF-539 CNS): > 100 µM | TGI (786-0 renal): > 100 µM | TGI (MALME-3M melanoma): > 100 µM | TGI (NCI-H460 lung): > 100 µM | TGI (KM12 colon): > 100 µM | TGI (SN12C renal): > 100 µM | TGI (HT29 colon): > 100 µM | TGI (SK-MEL-2 melanoma): > 100 µM | TGI (HCT-15 colon): > 100 µM | TGI (M19-MEL melanoma): > 100 µM | TGI (SNB-19 CNS): > 100 µM | TGI (U251 CNS): > 100 µM | TGI (IGROV1 ovarian): > 100 µM | TGI (LOX IMVI melanoma): > 100 µM | TGI (K-562 leukemia): > 100 µM | TGI (DMS 114 small cell lung): > 100 µM | TGI (SK-MEL-5 melanoma): > 100 µM | TGI (SK-MEL-28 melanoma): > 100 µM | TGI (SNB-78 CNS): > 100 µM | TGI (SF-295 CNS): > 100 µM | TGI (KM20L2 colon): > 100 µM | TGI (M14 melanoma): > 100 µM | TGI (NCI-H23 lung): > 100 µM | TGI (ACHN renal): > 100 µM | TGI (HOP-62 NSCLC): > 100 µM | TGI (OVCAR-3 ovarian): > 100 µM | TGI (SNB-75 CNS): > 100 µM | TGI (OVCAR-5 ovarian): > 100 µM | TGI (COLO 205 colon): > 100 µM | TGI (OVCAR-8 ovarian): > 100 µM | TGI (UACC-62 melanoma): > 100 µM | TGI (UO-31 renal): > 100 µM | TGI (LXFL 529 NSCLC): > 100 µM | TGI (XF 498 CNS): > 100 µM | TGI (EKVX NSCLC): > 100 µM | TGI (RPMI-8226 leukemia): > 100 µM | TGI (SW-620 colon): > 100 µM | TGI (NCI-H522 lung): > 100 µM | TGI (CCRF-CEM leukemia): > 100 µM | TGI (HCC-2998 colon): > 100 µM | TGI (TK-10 renal): > 100 µM
